Results reported in the supplement of paper PMC9663587.

Experiments:
Test in all cases: area over the GR curve, 72 h; higher = more effect;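 note: Dye Drop or Deep Dye Drop imaging of viable cells in 384-well plates (Hoechst nuclei, LIVE/DEAD dye), nine half-log doses, GR normalized to DMSO controls and time-zero plates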
AU565 = system: AU565
BT20 = system: BT20
MDAMB361 = system: MDAMB361
HCC1395 = system: HCC1395
SUM52PE = system: SUM52PE
HCC202 = system: HCC202
SKBR3 = system: SKBR3
SUM185PE = system: SUM185PE
ZR7530 = system: ZR7530
HCC1419 = system: HCC1419
HCC1937 = system: HCC1937
MDAMB330 = system: MDAMB330
UACC893 = system: UACC893

Compound | area over the GR curve (AU565) [GR] | area over the GR curve (BT20) [GR] | area over the GR curve (MDAMB361) [GR] | area over the GR curve (HCC1395) [GR] | area over the GR curve (SUM52PE) [GR] | area over the GR curve (HCC202) [GR] | area over the GR curve (SKBR3) [GR] | area over the GR curve (SUM185PE) [GR] | area over the GR curve (ZR7530) [GR] | area over the GR curve (HCC1419) [GR] | area over the GR curve (HCC1937) [GR] | area over the GR curve (MDAMB330) [GR] | area over the GR curve (UACC893) [GR] | area over the GR curve (BT20; main component drawn) [GR] | area over the GR curve (MDAMB361; main component drawn) [GR] | area over the GR curve (HCC1395; main component drawn) [GR] | area over the GR curve (SKBR3; main component drawn) [GR] | area over the GR curve (HCC1419; main component drawn) [GR] | area over the GR curve (HCC1937; main component drawn) [GR]
NC1(C(=O)N[C@@H](CCO)c2ccc(Cl)cc2)CCN(c2nc[nH]c3nccc2-3)CC1 [AZD5363] (max 10 µM) | 0.205 | 0.298 | 0.367 | 0.5 | 0.196 | 0.236 | 0.23 | 0.267 | 0.393 | 0.189 | 0.353 | 0.52 | 0.769 |  |  |  |  |  | 
C[C@@H]1COCCN1c1cc(C2([S@](C)(=N)=O)CC2)nc(-c2cc[nH]c3nccc2-3)n1 [AZD6738] (max 10 µM) | 0.0383 | -0.0437 | 0.161 | 0.194 | 0.0121 | 0.0023 | 0.335 | 0.0637 | -0.0333 | 0.0421 | -0.0947 | 0.0364 | 0.0149 |  |  |  |  |  | 
NC(=O)Nc1cc(-c2cccc(F)c2)sc1C(=O)N[C@H]1CCCNC1 [AZD7762] (max 10 µM) | 0.338 | 0.197 | 1.05 | 0.857 | 0.634 | 0.652 | 0.88 | 0.447 | 0.199 | 0.561 | 0.447 | 0.704 | 0.431 |  |  |  |  |  | 
Cc1nc(NC(=O)N2CCC[C@H]2C(N)=O)sc1-c1ccnc(C(C)(C)C(F)(F)F)c1 [Alpelisib/BYL719] (max 10 µM) | 0.472 | 0.201 | 0.531 | 0.023 | 0.19 | 0.351 | 0.379 | 0.36 | 0.351 | 0.356 | 0.0501 | 0.279 | 0.492 |  |  |  |  |  | 
CN(C)C/C=C/C(=O)Nc1ccc(O[C@@H]2CCC[C@@H](Nc3ncc(Cl)c(-c4c[nH]c5ccccc45)n3)C2)cc1 [BSJ-01-175] (max 10 µM) | 1.06 | 0.812 | 1.32 | 1.01 | 0.618 | 0.685 | 1.04 | 0.597 | 0.989 | 0.39 | 0.462 | 1.22 | 0.927 |  |  |  |  |  | 
CC(=O)c1c(C)c2cnc(Nc3ccc(N4CCN(CCOCCOCCOCCNC(=O)COc5cccc6c5C(=O)N(C5CCC(=O)NC5=O)C6=O)CC4)cn3)nc2n(C2CCCC2)c1=O (stereo not drawn) [BSJ-03-123] (max 10 µM) | 0.34 | 0.423 | 0.439 | 0.323 | 0.219 | 0.221 | 0.338 | 0.156 | 0.387 | 0.415 | 0.0357 | 0.443 | 0.34 |  |  |  |  |  | 
CC(C)Nc1cc(-c2c[nH]c(C(=O)N[C@H](CO)c3cccc(Cl)c3)c2)c(Cl)cn1 [BVD523] (max 10 µM) | 0.061 | 0.132 | 0.193 | 0.259 | 0.129 | 0.174 | 0.124 | -0.0633 | 0.08 | 0.0554 | 0.119 | 0.133 | 0.267 |  |  |  |  |  | 
Cc1c(N)nc([C@H](CC(N)=O)NC[C@H](N)C(N)=O)nc1C(=O)N[C@H](C(=O)N[C@H](C)[C@@H](O)[C@H](C)C(=O)N[C@H](C(=O)NCCc1nc(-c2nc(C(=O)NCCC[S+](C)C)cs2)cs1)[C@@H](C)O)[C@@H](OC1OC(CO)C(O)C(O)C1OC1OC(CO)C(O)C(OC(N)=O)C1O)c1cnc[nH]1 (stereo partly drawn) [Bleomycin] (max 10 µM) |  |  |  |  |  |  |  |  |  |  |  |  |  | 0.376 | 0.361 | 0.607 | 0.259 | 0.141 | 0.416
Nc1cc(C(F)(F)F)c(-c2cc(N3CCOCC3)nc(N3CCOCC3)n2)cn1 [Buparlisib/NVP-BKM120] (max 10 µM) | 0.662 | 0.359 | 0.611 | 0.308 | 0.338 | 0.371 | 0.585 | 0.299 | 0.371 | 0.45 | 0.263 | 0.442 | 0.587 |  |  |  |  |  | 
COc1cc2nccc(Oc3ccc(NC(=O)C4(C(=O)Nc5ccc(F)cc5)CC4)cc3)c2cc1OC [Cabozantinib] (max 10 µM) | -0.0067 | 0.0446 | 0.0628 | 0.0651 | 0.249 | -0.0223 | -0.0595 | -0.023 | 0.174 | -0.0617 | 0.0053 | 0 | -0.159 |  |  |  |  |  | 
COc1cc2c(Oc3ccc4[nH]c(C)cc4c3F)ncnc2cc1OCCCN1CCCC1 [Cediranib/AZD2171] (max 10 µM) | -0.0924 | 0.0199 | 0.288 | 0.223 | 0.379 | 0.0677 | 0.063 | 0.582 | 0.0237 | 0.0482 | 0.044 | 0.105 | 0.122 |  |  |  |  |  | 
Cc1cc(Nc2ncc(Cl)c(Nc3ccccc3S(=O)(=O)C(C)C)n2)c(OC(C)C)cc1C1CCNCC1 [Ceritinib/LDK378] (max 10 µM) | 0.0682 | 0.255 | 0.546 | 0.215 | 0.0274 | 0.119 | 0.301 | 0.261 | 0.0423 | 0.206 | 0.133 | 0.187 | -0.0026 |  |  |  |  |  | 
N.N.[Cl][Pt][Cl] [Cisplatin] (max 10 µM) |  | 0.334 | 0.177 | 0.386 |  |  | 0.0978 |  |  | 0.223 | 0.327 |  |  |  |  |  |  |  | 
Cc1nc(Nc2ncc(C(=O)Nc3c(C)cccc3Cl)s2)cc(N2CCN(CCO)CC2)n1 [Dasatinib] (max 10 µM) | 0.155 | 0.329 | 0.351 | 0.598 | 0.451 | 0.779 | -0.0183 | 0.455 | 0.426 | 0.311 | 0.442 | 0.183 | -0.149 |  |  |  |  |  | 
COc1cccc2c1C(=O)c1c(O)c3c(c(O)c1C2=O)C[C@@](O)(C(=O)CO)C[C@@H]3O[C@H]1C[C@H](N)[C@H](O)[C@H](C)O1 [Doxorubicin] (max 3.162 µM) | 0.604 | 0.828 | 0.912 | 0.637 | 0.321 | 0.358 | 0.942 | 0.0881 | 0.552 | 0.59 | 0.579 | 0.716 | 0.611 |  |  |  |  |  | 
COc1cc([C@@H]2c3cc4c(cc3[C@@H](O[C@@H]3O[C@@H]5CO[C@@H](C)O[C@H]5[C@H](O)[C@H]3O)[C@H]3COC(=O)[C@H]23)OCO4)cc(OC)c1O [Etoposide] (max 10 µM) |  | 0.459 | 0.343 | 0.389 |  |  | 0.403 |  |  | 0.32 | 0.393 |  |  |  |  |  |  |  | 
CC[C@@]1(O)C(=O)OCc2c1cc1n(c2=O)Cc2cc3c(CN(C)C)c(O)ccc3nc2-1 [Topotecan] (max 10 µM) |  | 1.03 | 1.13 | 1.08 |  |  | 0.794 |  |  | 0.99 | 0.837 |  |  |  |  |  |  |  | 
